{"source": "patent US20110190165A1", "about": "“HIGH THROUGHPUT METHODS OF IDENTIFYING NEUTRAL LIPID SYNTHASES” (priority 2008, published 2011)", "key": {"ACAT": {"test_system": "ACAT", "conditions": "ACAT1 vs ACAT2; cited from earlier work"}, "[1]": {"conditions": "tested in humans; cited from earlier work"}, "[2]": {"test_system": "quadruple knock-out strain cultures harboring vector with either DGAT1 or LacZ gene", "assay": "Growth of quadruple knock-out yeast expressing DGAT1 or LacZ on solid medium supplemented with fatty acids", "format": "cell-based, Saccharomyces cerevisiae", "conditions": "for suitability for selection: 0.5 mM (500 μM) fatty acid; for growth of DGAT1 and LacZ cultures: 1 mM fatty acid; for selectivity of the media at lowered concentration: 0.5 mM fatty acid", "experimental": "(A) Plates of YNBG with and without supplement of 1 mM of oleic acid (C18:1) dissolved in ethanol. The plate without FA contained the same volume of ethanol only. (B) Plates of YNBG supplemented with 1 mM of palmitoleic (16:1^cisΔ9), linoleic (18:2^cisΔ9,12), α-linolenic (C18:3), docosahexaenoic (C22:6), ricinoleic (C18:1 OH), erucic (C22:1) and 0.5 mM of palmitic (C16:0) and stearic (C18:0) acids. The FAs were dissolved in ethanol at 0.5M or 0.25M and added to the YNBG prior to plating. (C) Plates supplemented with oleic, α-linolenic and docosahexaenoic acids at the final concentrations indicated. (D) Selection of yeast cells in medium with FA after transformation. H1246 cells were transformed with 1 μg of pYESBnDGAT1 (column 1), 1 μg of pYESLacZ (column 2) and 0.1 μg of pYESBnDGAT1 mixed with 0.9 μg of pYESLacZ (column 3). After transformation, yeast cells were recovered in liquid YNBD medium for 6 hours, inoculated in YNBG plates with or without supplement of 1 mM oleic acid and incubated at 30° C. for 6 days."}, "[3]": {"test_system": "S. cerevisiae strain H1246 (quadruple knock-out)", "assay": "Growth of knock-out yeast in liquid medium supplemented with oleic acid", "conditions": "growth measured for 72 hours", "quoted_text": "Oleic acid, dissolved in ethanol at 0.5M, was supplemented to the cultures at the final concentrations indicated. The cultures were incubated at 30 °C, 250 rpm and the growth was monitored for 72 hours.\nThree yeast strains (wild type, dga1 knock-out and quadruple knock-out) were transformed with yeast expression vector pYES2.1-TOPO (Invitrogen) containing a cDNA coding for DGAT1 from several oilseed plants (canola, flax or castor bean). The same vector containing the gene coding for the bacterial protein LacZ served as the negative control. Transformed yeast cells were cultivated in 50 mL of uracil drop-out medium supplemented with 2% glucose for 48 hours shaking at 30° C. and 250 rpm. The cells were washed twice with water and inoculated in liquid media supplemented with 2% galactose, 1% raffinose to induce the expression of the recombinant proteins, and different concentrations of free fatty acids (0 to 1000 μM of oleic acid). […] Cell growth was measured for a period of 72 hours."}}, "data": [{"smiles": "CCCCCCCCN1CCc2c(C)c(CC(=O)O)c(C)c(NC(=O)C(C)(C)C)c21", "note": "[pactimibe]", "values": [{"measurement": "selectivity among ACAT isoforms", "setting": "ACAT", "value": "nonselective ACAT inhibitors"}, {"measurement": "efficacy against atherosclerosis", "setting": "[1]", "value": "ineffective against atherosclerosis"}, {"measurement": "harm", "setting": "[1]", "value": "probably harmful due to ACAT1 inhibition"}]}, {"smiles": "CC/C=C\\C/C=C\\C/C=C\\CCCCCCCC(=O)O", "note": "[α-linolenic, α-linolenic acid]", "values": [{"measurement": "suitability for selection", "setting": "[2]", "value": "suitable for selection"}, {"measurement": "growth of DGAT1 and LacZ cultures", "setting": "[2]", "value": "inhibited the growth of both cultures"}]}, {"smiles": "CCCCCCCC/C=C\\CCCCCCCCCCCC(=O)O", "note": "[erucic, erucic acid]", "values": [{"measurement": "selectivity of the media at lowered concentration", "setting": "[2]", "value": "did not substantially improve the selectivity"}]}, {"smiles": "CCCCCCCC/C=C\\CCCCCCCC(=O)O", "note": "[oleic acid]", "values": [{"measurement": "colony formation on solid medium", "setting": "[2]; 1000 μM oleic acid, five days at 30° C., DGAT1 vs LacZ", "value": "only the cells expressing the recombinant DGAT1 formed visible colonies"}, {"measurement": "concentration most effective in distinguishing strains with and without TAG synthase activity", "setting": "[3]", "value": 1000, "unit": "µM"}, {"measurement": "lowest concentration at which the inhibitory effect on growth was observed", "setting": "[3]; knock-out strains without recombinant DGAT1", "value": 25, "unit": "µM"}]}, {"smiles": "CC(C)c1cc(C(C)C)c(CC(=O)NS(=O)(=O)Oc2c(C(C)C)cccc2C(C)C)c(C(C)C)c1", "note": "[avasimibe]", "values": [{"measurement": "selectivity among ACAT isoforms", "setting": "ACAT", "value": "nonselective ACAT inhibitors"}, {"measurement": "efficacy against atherosclerosis", "setting": "[1]", "value": "ineffective against atherosclerosis"}, {"measurement": "harm", "setting": "[1]", "value": "probably harmful due to ACAT1 inhibition"}]}, {"smiles": "CCCCCCCCCCCCCCCC(=O)O", "note": "[palmitic, palmitic acid]", "values": [{"measurement": "selectivity of the media at lowered concentration", "setting": "[2]", "value": "did not substantially improve the selectivity"}]}, {"smiles": "CCCCCCCCCCCCCCCCCC(=O)O", "note": "[stearic, stearic acid]", "values": [{"measurement": "selectivity of the media at lowered concentration", "setting": "[2]", "value": "did not substantially improve the selectivity"}]}, {"smiles": "CCCCC/C=C\\C/C=C\\CCCCCCCC(=O)O", "note": "[linoleic, linoleic acid]", "values": [{"measurement": "suitability for selection", "setting": "[2]", "value": "suitable for selection"}, {"measurement": "growth of DGAT1 and LacZ cultures", "setting": "[2]", "value": "inhibited the growth of both cultures"}]}]}
